Results published in US20020022633A1, “Inhibitors of prenyl-protein transferase” (priority 2000, published 2002).
Where a name gives a salt, the structure may show the parent alone.

Biological target: T1, human FPTase (Homo sapiens, UniProt P49354+P49356)
T1 construct: made in house
Assay: In vitro inhibition of ras farnesyl transferase (FPTase transferase assay)
Format: biochemical
Settings: recombinant FPTase; 650 nM Ras-CVLS, 100 nM farnesyl diphosphate; 30° C.; read-out: IC50, inhibitory activity against human FPTase
Experimental: In vitro Inhibition of ras Farnesyl Transferase
Transferase Assays. Isoprenyl-protein transferase activity assays are carried out at 30° C. unless noted otherwise. A typical reaction contains (in a final volume of 50 µL): [^3H]farnesyl diphosphate, Ras protein , 50 mM HEPES, pH 7.5, 5 mM MgCl2, 5 mM dithiothreitol, 10 μM ZnCl2, 0.1% polyethyleneglycol (PEG) (15,000-20,000 mw) and isoprenyl-protein transferase. The FPTase employed in the assay is prepared by recombinant expression as described in Omer, C. A., Kral, A. M., Diehl, R. E., Prendergast, G. C., Powers, S., Allen, C. M., Gibbs, J. B. and Kohl, N. E. (1993) Biochemistry 32:5167-5176. After thermally pre-equilibrating the assay mixture in the absence of enzyme, reactions are initiated by the addition of isoprenyl-protein transferase and stopped at timed intervals (typically 15 min) by the addition of 1 M HCl in ethanol (1 mL). The quenched reactions are allowed to stand for 15 m (to complete the precipitation process). After adding 2 mL of 100% ethanol, the reactions are vacuum-filtered through Whatman GFIC filters. Filters are washed four times with 2 mL aliquots of 100% ethanol, mixed with scintillation fluid (10 mL) and then counted in a Beckman LS3801 scintillation counter. […]

Structure (SMILES): N#Cc1ccc2cc1Oc1ccc3ccc(=O)n(c3c1)-c1ccc(cn1)CCc1cncn1C2 [Example 1, 17-Oxo-22,23-dihydro-5H-12,14:18,21-dietheno-6,10-metheno-benzo[d]imidazo [4,3-l][1,5,7,13]oxatriazacyclononadecine-9-carbonitrile dihydrochloride]
- IC50: ≤ 30 µM
